Measurements taken from US9840478B2 (MERCK SHARP & DOHME CORP., priority 2013, dated 2017).

Each compound was assayed on HIV-1 (H9IIIB strain) (assay: Cell-based HIV infection assay using a reporter (Cell-Based), MT4-GFP cells). Conditions: Human immunodeficiency virus 1, MT4-GFP cells infected with HIV-1 H9IIIB; 50% normal human serum; mean of at least two independent experiments; read-out: Cell-based IP.
Experimental: Cell-Based HIV Infection Assay Using a Reporter (“Cell-Based”):
MT4-GFP cells contain a stably integrated HIV long terminal repeat promoter directing the transcription of green fluorescent protein (GFP). When HIV infects the cell, GFP is produced and the cell becomes green. MT4-GFP cells (250,000 cells/ml) were bulk-infected with HIV-1 (H9IIIB strain) at low multiplicity of infection (MOI) in RPMI media, supplemented with 10% FBS for 24 hours. Cells were then washed once in RPMI plus 10% FBS and resuspended in RPMI plus 50% normal human serum (NHS). Test compounds were serial-diluted in DMSO using an ECHO liquid dispenser. A control well included a combination of three HIV drugs (an inhibitor of HIV protease, integrase strand transfer and a non-nucleoside reverse transcriptase inhibitor; triple drug). The infected MT4-GFP cells were added to a 384-well poly-D-lysine coated black plate with clear bottom in which the diluted test compounds were placed. The cells were seeded in the plate at 8,000 cells per well and the final DMSO concentration was 0.4%. Infected cells were quantified at both 24 and 48 hours post incubation using an Acumen eX3 plate reader. Viral reproductive ratio (R0) was determined using the number of infected cells at 48 hours divided by the number of infected cells at 24 hours. Percent viral growth inhibition was calculated by [1−(R−Rtripledrug)/(RDMSO−Rtripledrug)]*100. Compound potency IP or IC50 was determined with use of a 4-parameter dose response curve analysis.

| SMILES | IC50 |
| --- | --- |
| COc1ccc(S(=O)(=O)N2[C@@H](CCc3c(F)cccc3NC(=O)[C@@H](N)[C@@H](c3ccc(F)cc3)c3cc(F)cc(F)c3)CNC[C@H]2C)cc1 [Example 16, (βS)-β-(3,5-difluorophenyl)-4-fluoro-N-[3-fluoro-2-(2-{(2S,6R)-1-[(4-methoxyphenyl)sulfonyl]-6-methylpiperazin-2-yl}ethyl)phenyl]-L-phenylalaninamide] | 5.4 nM |
| COC(=O)N[C@H](C(=O)Nc1cncc(F)c1CC[C@H]1CNC[C@@H](C)N1S(=O)(=O)c1ccccc1)[C@@H](c1ccc(Cl)cc1)C(C)C [Example 17, (βR)-4-chloro-N-(5-fluoro-4-{2-[(2S,6R)-6-methyl-1-(phenylsulfonyl)piperazin-2-yl]ethyl}pyridin-3-yl)-Nα-(methoxycarbonyl)-β-(1-methylethyl)-L-phenylalaninamide] | 4.4 nM |
| COC(=O)N[C@H](C(=O)Nc1cccc(F)c1CC[C@H]1CNC[C@@H](C)N1S(=O)(=O)c1ccc(F)cc1)[C@@H](c1ccc(Cl)cc1)C1CCOCC1 [Example 18, Methyl ((1R,2S)-1-(4-chlorophenyl)-3-((3-fluoro-2-(2-((2S,6R)-1-((4-fluorophenyl)sulfonyl)-6-methylpiperazin-2-yl)ethyl)phenyl)amino)-3-oxo-1-(tetrahydro-2H-pyran-4-yl)propan-2-yl)carbamate] | 8.6 nM |
| COC(=O)N[C@H](C(=O)Nc1cccc(F)c1CC[C@H]1CNCC2(CC2)CN1S(=O)(=O)c1ccccc1)[C@@H](c1ccc(Cl)cc1)c1ccc(OC)nc1 [Example 19, Methyl ((1S,2S)-1-(4-chlorophenyl)-3-((3-fluoro-2-(2-((S)-5-phenylsulfonyl)-5,8-diazaspiro[2.6]nonan-6-yl)ethyl)phenylamino)-1-(6-methoxypyridin-3-yl)-3-oxopropan-2-yl)carbamate 2,2,2-trifluoroacetate] | 16 nM |
| COC(=O)N[C@H](C(=O)Nc1cccc(F)c1CC[C@H]1CNCC2(CC2)CN1S(=O)(=O)c1ccccc1)[C@@H](c1ccc(F)cc1)C1CCOCC1 [Example 20, Methyl ((2S,3R)-1-((3-fluoro-2-(2-((S)-5-(phenylsulfonyl)-5,8-diazaspiro[2.6]nonan-6-yl)ethyl)phenyl)amino)-3-(4-fluorophenyl)-1-oxo-3-(tetrahydro-2H-pyran-4-yl)propan-2-yl)carbamate] | 21 nM |
| N[C@H](C(=O)Nc1cncc(F)c1CC[C@H]1CNCCN1S(=O)(=O)CC1CC1)[C@@H](c1ccc(F)cc1)c1cc(F)cc(F)c1 [Example 28, (βS)-N-[4-(2-{(2S)-1-[(cyclopropylmethyl)sulfonyl]piperazin-2-yl}ethyl)-5-fluoropyridin-3-yl]-3,5-difluoro-β-(4-fluorophenyl)-L-phenylalaninamide] | 21 nM |
| Nc1ccc(S(=O)(=O)N2CCNC[C@@H]2CCc2c(F)cncc2NC(=O)[C@@H](N)[C@@H](c2ccc(F)cc2)c2cc(F)cc(F)c2)cn1 [Example 29, (βS)-N-[4-(2-{(2S)-1[(6-aminopyridin-3-yl)sulfonyl]piperazin-2-yl}ethyl)-5-fluoropyridin-3-yl]-3,5-difluoro-β-(4-fluorophenyl)-L-phenylalaninamide] | 520 nM |
| N[C@H](C(=O)Nc1cncc(F)c1CC[C@H]1CNCCN1S(=O)(=O)c1ccccc1)[C@@H](c1ccc(F)cc1)c1cc(F)cc(F)c1 [Example 30, (βS)-β-(3,5-difluorophenyl)-4-fluoro-N-(5-fluoro-4-{2-[(2S)-1-(phenylsulfonyl)piperazin-2-yl]ethyl}pyridin-3-yl)-L-phenylalaninamide] | 9.3 nM |
| N[C@H](C(=O)Nc1cccc(F)c1CC[C@@H]1CNCCN1S(=O)(=O)c1ccccc1)C(c1ccc(F)cc1)c1ccc(F)cc1 [Example 31, (S)-2-amino-N-(3-fluoro-2-(2-((R)-1-(phenylsulfonyl)piperazin-2-yl)ethyl)phenyl)-3,3-bis(4-fluorophenyl) propanamide] | 850 nM |
| N[C@H](C(=O)Nc1cccc(F)c1CC[C@H]1CNCCN1S(=O)(=O)c1ccccc1)C(c1ccc(F)cc1)c1ccc(F)cc1 [Example 32, (S)-2-amino-N-(3-fluoro-2-(2-((S)-1-(phenylsulfonyl)piperazin-2-yl)ethyl)phenyl)-3,3-bis(4-fluorophenyl) propanamide] | 6.6 nM |
| N[C@H](C(=O)Nc1cncc(F)c1CC[C@H]1CNCCN1S(=O)(=O)C1CC1)[C@@H](c1ccc(F)cc1)c1cc(F)cc(F)c1 [Example 33, (βS)-N-(4-{2-[(2S)-1-(cyclopropylsulfonyl)piperazin-2-yl]ethyl}-5-fluoropyridin-3-yl)-3,5-difluoro-β-(4-fluorophenyl)-L-phenylalaninamide] | 25 nM |
| N[C@H](C(=O)Nc1cccc(F)c1CCC1CNCCN1S(=O)(=O)c1ccccc1)C(c1cc(F)cc(F)c1)c1cc(F)cc(F)c1 (stereo partly drawn) [Example 34, β-(3,5-difluorophenyl)-3,5-difluoro-N-(3-fluoro-2-{2-[1-(phenylsulfonyl)piperazin-2-yl]ethyl}phenyl)-L-phenylalaninamide] | 16 nM |
| N[C@H](C(=O)Nc1cncc(F)c1CC[C@H]1CNCCN1S(=O)(=O)c1ccccc1)[C@@H](c1ccc(Cl)cc1)c1cccc(F)c1 [Example 35, (βS)-4-chloro-β-(3-fluorophenyl)-N-(5-fluoro-4-{2-[(2S)-1-(phenylsulfonyl)piperazin-2-yl]ethyl}pyridin-3-yl)-L-phenylalaninamide] | 13 nM |
| O=C(C[C@@H](c1ccc(Cl)cc1)C1CCS(=O)(=O)CC1)Nc1cccc(F)c1CC[C@H]1CNCCN1S(=O)(=O)c1ccccc1 [Example 36, (3R)-3-(4-chlorophenyl)-3-(1,1-dioxidotetrahydro-2H-thiopyran-4-yl)-N-(3-fluoro-2-{2-[(2S)-1-(phenylsulfonyl)piperazin-2-yl]ethyl}phenyl) propanamide] | 29 nM |
| N[C@H](C(=O)Nc1cccc(F)c1CC[C@H]1CNCCN1S(=O)(=O)c1ccccc1)[C@@H](c1ccc(Cl)c(F)c1)C1CCOCC1 [Example 37, (βR)-4-chloro-3-fluoro-N-(3-fluoro-2-{2-[(2S)-1-(phenylsulfonyl)piperazin-2-yl]ethyl}phenyl)-β-(tetrahydro-2H-pyran-4-yl)-L-phenylalaninamide] | 46 nM |
| N[C@H](C(=O)Nc1cccc(F)c1CC[C@@H]1CNCCN1S(=O)(=O)c1ccccc1)[C@@H](c1ccc(Cl)c(F)c1)C1CCOCC1 [Example 38, (βR)-4-chloro-3-fluoro-N-(3-fluoro-2-{2-[(2R)-1-(phenylsulfonyl)piperazin-2-yl]ethyl}phenyl)-β-(tetrahydro-2H-pyran-4-yl)-L-phenylalaninamide] | 890 nM |
| N[C@H](C(=O)Nc1cccc(F)c1CC[C@H]1CNCCN1S(=O)(=O)c1ccccc1)[C@@H](c1ccc(Cl)cc1)c1cccc(F)c1 [Example 39, (βS)-4-chloro-β-(3-fluorophenyl)-N-(3-fluoro-2-{2-[(2S)-1-(phenylsulfonyl)piperazin-2-yl]ethyl}phenyl)-L-phenylalaninamide] | 12 nM |
| N[C@H](C(=O)Nc1cccc(F)c1CC[C@H]1CNCCN1S(=O)(=O)c1ccccc1)[C@@H](c1ccc(Cl)cc1)C1CCS(=O)(=O)CC1 [Example 41, (βR)-4-chloro-β-(1,1-dioxidotetrahydro-2H-thiopyran-4-yl)-N-(3-fluoro-2-{2-[(2S)-1-(phenylsulfonyl)piperazin-2-yl]ethyl}phenyl)-L-phenylalaninamide] | 34 nM |
| N[C@H](C(=O)Nc1cccc(F)c1CC[C@H]1CNCCN1S(=O)(=O)c1ccccc1)[C@@H](c1ccc(Cl)cc1)c1cccc(OC(F)(F)F)c1 [Example 42, (βS)-4-chloro-N-(3-fluoro-2-{2-[(2S)-1-(phenylsulfonyl)piperazin-2-yl]ethyl}phenyl)-β-[3-(trifluoromethoxy)phenyl]-L-phenylalaninamide] | 60 nM |
| N[C@H](C(=O)Nc1cccc(F)c1CC[C@H]1CNCCN1S(=O)(=O)c1ccccc1)[C@@H](c1ccc(Cl)cc1)c1cc(F)cc(F)c1 [Example 43, (βS)-4-chloro-β-(3,5-difluorophenyl)-N-(3-fluoro-2-{2-[(2S)-1-(phenylsulfonyl)piperazin-2-yl]ethyl}phenyl)-L-phenylalaninamide] | 12 nM |
| N[C@H](C(=O)Nc1cccc(F)c1CC[C@H]1CNCCN1S(=O)(=O)c1ccccc1)[C@@H](c1ccc(Cl)cc1)c1cncc(F)c1 [Example 44, (βS)-4-chloro-N-(3-fluoro-2-{2-[(2S)-1-(phenylsulfonyl)piperazin-2-yl]ethyl}phenyl)-β-(5-fluoropyridin-3-yl)-L-phenylalaninamide] | 15 nM |
| N[C@H](C(=O)Nc1cncc(F)c1CC[C@H]1CNCCN1S(=O)(=O)c1ccccc1)[C@@H](c1ccc(Cl)cc1)c1cccc(OC(F)(F)F)c1 [Example 45, (βS)-4-chloro-N-(5-fluoro-4-{2-[(2S)-1-(phenylsulfonyl)piperazin-2-yl]ethyl}pyridin-3-yl)-β-[3-(trifluoromethoxy)phenyl]-L-phenylalaninamide] | 16 nM |
| N[C@H](C(=O)Nc1cncc(F)c1CC[C@H]1CNCCN1S(=O)(=O)c1ccccc1)[C@@H](c1ccc(Cl)cc1)c1cc(F)cc(F)c1 [Example 46, (βS)-4-chloro-β-(3,5-difluorophenyl)-N-(5-fluoro-4-{2-[(2S)-1-(phenylsulfonyl)piperazin-2-yl]ethyl}pyridin-3-yl)-L-phenylalaninamide] | 12 nM |
